# Measured values as given in patent US20220267394A1, “COMPOUNDS FOR INDUCING TISSUE FORMATION AND USES THEREOF” (HISTIDE AG, priority 2015, published 2022).
# Where no end group is shown, it is not given here.
# Tested on: hMSCs
# Assay: Loss of stemness: STRO-1 expression by immunostaining
# Type: cell-based, human
# Conditions: Table 6, previously reported peptides in solution, 400 ng/mL
# Description: The cells were first fixed for 20 min with 4% paraformaldehyde/PBS at 4° C. After fixation, the cells were permeabilized in PBS containing 1% Triton X-100 for 15 min. Runx2, Osterix, Stro-1, Vinculin, Phalloidin, Osteopontin, Sox2, Sox9 antibodies were visualized by treating the cells with 1% (v/v) specific monoclonal antibodies for 1 hour at 37° C. Then the samples were incubated with Alexa Fluor® 568 or 647 (F(ab′)2 fragment of IgG(H+L)) during 30 min at room temperature. The cell nuclei were counterstained in 20 ng/mL DAPI for 10 min at room temperature.
# For this type of quantification the freeware image analysis ImageJ® software was used. The raw image was first converted to an 8-bit file, and then the unsharp mask feature was used (settings 1:0.2) to remove the image background (rolling ball radius 10). After smoothing, the resulting image, which appears similar to the original photomicrograph but with minimal background, was then converted to a binary image by setting a threshold. Threshold values were determined empirically by selecting a setting, which gave the most accurate binary image for a subset of randomly selected photomicrographs. The cell area was determined by manual delineation on raw fluorescent images. Total contact area and mean contact area per cell were calculated by “analyse particules” in ImageJ®. A minimum of 30 cells per condition were analyzed. Stro-1, CD-34+, and CD-105 expressions were determined using this procedure.
# hMSCs were cultured on conventional cell culture plastic plates with or without the presence in the cell culture media of different GFR-binding compounds as described herein (SEQ ID NO: 50 to 88) in solution. […] This was probed by Stro-1 immunostaining after cell fixation as described in the Methods section. The quantification of Stro-1 positive contact numbers and areas was performed as described in the Methods section. A minimum of 30 cells per condition were analyzed. Stro-1 positive marrow cells are multipotential and capable of differentiating into multiple mesenchymal lineages including stromal cells with a phenotype resembling vascular smooth muscle cells that can support hematopoiesis, adipocytes, osteoblasts, and chondrocytes.
# Using the method detailed in the description, the RMSD of 57 previously reported peptide sequences have been determined (Table 6) and correlated with the expression of STRO-1 in solution. […] One should note that it is commonly admitted that the expression of STRO-1 in a cell is indicative of a cell that is in a substantially non-differentiated state and the decrease of its expression of at least about 20% is indicative of a cell that has started a process of differentiation but which may not result in the differentiation of the cell. A decrease of more than 50% would be indicative of the presence of a significant shift towards a differentiated state. A decrease of more than 70% would be indicative of the presence of a very important shift towards a differentiated state. A sustained decrease (e.g. for at least 96 h) of more than 50% or 70% would be indicative of the presence of an even more important shift towards a differentiated state.
# Likewise, using the method detailed in the description, the RMSD of 75 GFR-binding peptide sequence representatives of the invention have been determined (Table 8) and correlated with the expression of STRO-1. SEQ ID NO: 1 to 49 were tested in combination with a bioactive carrier as defined above in the Examples Section (i.e. titanium, ceramics, collagen, etc. . . . ), whereas SEQ ID NO: 2242 to 2267 were tested in solution.
row,Substance,STRO-1 expression (%)
1,"2158 (VEQLSNMVVK; Peptide reported in US20130259924, SEQ ID NO:21667) [compound 2158]",98%
2,"2159 (PIIYYVGRNVRVEQLSNMVVRA; Peptide reported in US5436228, SEQ ID NO:14) [compound 2159]",92%

# Same assay, conditions: Table 8, SEQ ID NO: 1 to 49 tested in combination with a bioactive carrier (titanium, ceramics, collagen, etc.)
row,Substance,STRO-1 expression (%)
1,1 (CKVPKPSSAPTQLSAISTLYLDEYDKVVLKNYQNMVVRA; not fully specified; ends and bridges not checked) [compound 1],26%
2,2 (CKVGKASSVPTKLSAISTLYLDDMGVPTLKNYQNMVVRASGSH; not fully specified; ends and bridges not checked) [compound 2],21%
3,3 (CASASPSSVSQDLSAISTLYLIGKTPKILKNYQMIVKSSKSS; not fully specified; ends and bridges not checked) [compound 3],18%
4,"5 (CASASPXXVSQDLNAISVLYFIGKTPKILKKYRMIVKSXKXS; GFR-binding peptide; MOD_RES (7), (8), (39), (41): Xaa is C or S) [compound 5]",26%
5,"6 (CAVPKAXXAPTKLSATSVLYYDSSNNVVLRKHRNMVVK; GFR-binding peptide; MOD_RES (7), (8): Xaa is C or S) [compound 6]",26%
6,"7 (CTVPKPXXAPTQLSPISVLYKDDSSNVILKYHYNMVVRAXGXH; GFR-binding peptide; MOD_RES (7), (8), (40), (42): Xaa is C or S) [compound 7]",18%
7,8 (CAPTQLSPISVLYKDDSSNVILKYHYTLEDH; GFR-binding peptide) [compound 8],19%
8,9 (CRNVQCRPTQVQLSAISTLYLEIVRKKPLKNYQTLEDH; GFR-binding peptide) [compound 9],19%
9,10 (CPSSAPTQLSATSVLYYDDSSNVILRKHRQHNK; GFR-binding peptide) [compound 10],19%
10,11 (CPKPSSAPTQLNAISMLYFGGGGGGGLKKYRNMVVRA; GFR-binding peptide) [compound 11],31%
11,12 (CKVPKASSVPTELSAISTLYLAAAALKNYQEM; GFR-binding peptide) [compound 12],28%
12,13 (CSIPKASSVPTELSATSVLYYDEYDEKVVLRKHEMVVEG; not fully specified; ends and bridges not checked) [compound 13],23%
13,14 (CAPTKLSAISMLYLDSSNNVILKNYQ; GFR-binding peptide) [compound 14],16%
14,15 (CASSAVSQELSAISMLYLGGGLKNYQDM; GFR-binding peptide) [compound 15],21%
15,16 (CKASSVPTELSPISTLYKDENEKVVLKYHYDMVVEGSGSR; not fully specified; ends and bridges not checked) [compound 16],18%
16,17 (CASAAPSSVPQKLNAISMLYFVGRKPKVLKKYRMIVRS; not fully specified; ends and bridges not checked) [compound 17],21%
17,18 (CKVGKASSVPTKLNAISTLYLDENEKVVLKKYREGMS; not fully specified; ends and bridges not checked) [compound 18],19%
18,19 (CPKPSSAPTQLSAISTLYLDDSSNVILKNYQMIVVRA; GFR-binding peptide) [compound 19],20%
19,20 (CKVGKASSVPTKLNAISTLYLDDSSNVILKNYQ; not fully specified; ends and bridges not checked) [compound 20],18%
20,21 (CGGGSSVPTELSAISTLYLDDYDKVILKKYRNM; GFR-binding peptide) [compound 21],14%
21,22 (WWFWGKVPKPSSAPTQLSAISTLYLDEYDKVVLKNYQNMVVR; not fully specified; ends and bridges not checked) [compound 22],17%
22,23 (GTPGPKVPKPSSAPTQLSAISTLYLDEYDKVVLKNYQNMAVR; not fully specified; ends and bridges not checked) [compound 23],17%
23,24 (GTPGPPSSAPTQLSATSVLYYDDSSNVILRKHRMIVKS; GFR-binding peptide) [compound 24],21%

row,Substance,STRO-1 expression (%)
1,25 (GTPGPAPTQLSPISVLYKDDSSNVILKYHY; GFR-binding peptide) [compound 25],23%
2,26 (GTPGPASSAVSQELSAISMLYLGGGLKNYQDM; GFR-binding peptide) [compound 26],22%
3,27 (GTPGPAPTKLSAISMLYLDSSNNVILRKHR; GFR-binding peptide) [compound 27],19%
4,28 (GTPGPAPTKLSAISMLYLDSSNNVILKKYR; GFR-binding peptide) [compound 28],19%
5,29 (GTPGPKASSVPTELSPISTLYKDENEKVVLKYHYDMVVEGSGSR; not fully specified; ends and bridges not checked) [compound 29],21%
6,30 (GTPGPKASSVPTELSPISTLYKDENEKVVLKYHYDM; GFR-binding peptide) [compound 30],18%
7,31 (GTPGPPKPSSAPTQLNAISMLYFGGGGGLKKYRDMQHN; GFR-binding peptide) [compound 31],31%
8,32 (WWFWGKASSVPTELSPISTLYKDENEKVVLKYHYDMVVEGSGSR; not fully specified; ends and bridges not checked) [compound 32],21%
9,33 (WWFWGASSAVSQELSAISMLYLGGGLKNYQDMQHN; GFR-binding peptide) [compound 33],28%
10,34 (GTPGPRNVQCRPTQVQLSAISTLYLEIVRKKPLKNYQTLEDH; GFR-binding peptide) [compound 34],18%
11,35 (GTPGPRNVQCRPTQVQLSAISTLYLAAALKNYQTLE; GFR-binding peptide) [compound 35],28%
12,36 (CKIPKASSVPTELEPLPIVYYVGRKPKVEQLSNMIVRS; not fully specified; ends and bridges not checked) [compound 36],19%
13,38 (CVPTEERSVKVAKVRIKPHQGQHKEVQV; GFR-binding peptide) [compound 38],23%
14,39 (CVPTEESNITMQIMRIKPHQGQHIGEMSFL; GFR-binding peptide) [compound 39],16%
15,41 (CGIPEPSSVPEKMSSLSILFFDENKNVVLKVYPNM; not fully specified; ends and bridges not checked) [compound 41],22%
16,43 (CAAPASSSVPARLSPISILYIDAANNVVYKQYEDMVVEASG; not fully specified; ends and bridges not checked) [compound 43],27%
17,44 (CAAPASSSVPARLSPISILYIDAANNVVYKQYEDMVVE; not fully specified; ends and bridges not checked) [compound 44],27%
18,45 (CAAPASSSVPARLSPISLLYIDAANNVVYKQYEDM; not fully specified; ends and bridges not checked) [compound 45],24%
19,46 (CPARLSPISLLYIDAANNVVYKQYEDM; GFR-binding peptide) [compound 46],19%
20,"47 (CAAAPASXXVPARLSPISILYIAAAYKQYEDM; GFR-binding peptide; MOD_RES (8), (9): Xaa is C or S) [compound 47]",18%
21,48 (CVPQRLSPISILYIDAANNVVYKQYE; GFR-binding peptide) [compound 48],18%
22,"49 (CTVPKPXXAPTQLSPISILYIDAANNVVYKQYEDMVVRA; GFR-binding peptide; MOD_RES (7), (8): Xaa is C or S) [compound 49]",18%
